This series is described as follows: Human HepG2 cell viability assay in 384 well format. The note with it: HepG2 cells, read-out: Inhibition. It is filed as toxicity, cell-based. Also noted: dose 125 nL, time 70.5 hour; cytotoxicity at 70.5 h: concentration not given beside the values.

97 compounds from ChEMBL document CHEMBL3507680, “University of Dundee, Gates Library screen for HepG2 cell viability” can be followed below.

Structures are written as SMILES.

With `CC(C)c1cc(C(=O)N(Cc2ccncc2)CC2CCCO2)no1` (configuration not stated), the cytotoxicity at 70.5 h is -6.68%. For `Cc1cc(NCCCNc2cccnc2)n2nc(C)c(C)c2n1`, the cytotoxicity at 70.5 h is -10.7%. With `OCC1(CC2CC2)CCCN(Cc2cnc(N3CCOCC3)nc2)C1` (configuration not stated) the figure was -5.42%; with `CCc1nc(C)cc(NC(C)C(=O)Nc2cc(F)ccc2C)n1` (configuration not stated), -15.5%; with `CCc1cc(C(=O)N2CCC(C3CCN(c4ncccn4)CC3)C2)on1` (configuration not stated), 2.57%.

In the case of `Nc1cc(C(=O)N2CCCC3(C=Cc4ccccc4O3)CC2)ccn1` (configuration not stated), the cytotoxicity at 70.5 h is -4.49%. In the case of `O=C(CN1CCN(CC2CCOc3ccccc3C2)CC1)N1CCCC1` (configuration not stated) it was -13%; in that of `Cc1cc(C(=O)N(C)Cc2cnn(C)c2)c(NC(=O)C(C)(C)C)s1`, -12.1%. For `CNc1nc(C(=O)N2CCN(c3ccc(Cl)c(Cl)c3)CC2)cs1`, the cytotoxicity at 70.5 h was -6.48%.

For the compound `CCC(=O)NC(CC)c1ccccc1C` (configuration not stated), the cytotoxicity at 70.5 h was -5.25%.

For `Oc1ccc(N2CCC(Cc3ccccc3)CC2)nn1`, the cytotoxicity at 70.5 h is -4.56%. As for `Cc1cc(C(=O)N(C)Cc2ccn[nH]2)c(NC(=O)C(C)(C)C)s1`, the cytotoxicity at 70.5 h is -9.88%. In the case of `COc1ccc2c(c1)OCC(Cc1cnc(N)c(C)c1)C2` (configuration not stated) it was 1.49%; in that of `CCn1c(C2CCCN(Cc3ccc(F)cc3Cl)C2)nn(C)c1=O` (configuration not stated), 6.43%; in that of `COCCOC1CCN(C(C(=O)O)c2c(Cl)cccc2OC)CC1` (configuration not stated), -10.5%. In the case of `Cn1ncc(NC(=O)Cn2ccc(-c3cccc(F)c3)n2)n1` it was 1.6%; in that of `CCOC(=O)c1cc2c(=O)[nH]c(=O)n(CCc3ccccc3)c2nc1C`, -7.68%; in that of `COCC(=O)N1CCC(C(=O)Nc2ccc(S(N)(=O)=O)cc2)CC1`, -7.49%. For `Cc1ccc(NC(=O)c2cc3c(=O)n(C)c(=O)n(C)c3nc2C)cc1Cl`, the cytotoxicity at 70.5 h is 1.87%. With `Cc1ccc2c(c1)SCC(=O)N2CC(=O)N1CCC[C@H]1c1nc(C)no1` the figure was -5.13%; with `Cn1c(CN2CCCC2)nnc1C1CCCN(C(=O)CN2CCCC2)C1` (configuration not stated), 2.51%. In the case of `CSc1ncccc1C(=O)N1C[C@H]2CC[C@@H]1CN(C(=O)N(C)C)C2` it was -7.79%; in that of `Cc1cc2c(c(-c3cnccn3)c1)OC(CN)C2` (configuration not stated), -6.44%; in that of `Cc1ccc(O)c(CN2CCn3nc(C(=O)N4CCCC4)cc3C2)n1`, 0.113%.

On to `COc1ccc(-c2cccc3c2OC(CN)C3)cc1F` (configuration not stated), for which the cytotoxicity at 70.5 h worked out at 5.9%. With `c1cncc(CCc2nc(C3CC3)nn2-c2ccc3c(c2)OCCO3)c1` the figure was 21.8%. For the compound `CSCCc1c(-c2ccccc2)ncn1CC(C)(C)N1CCCC1`, the cytotoxicity at 70.5 h was -10.9%. With `Cc1ccc(N2CCC(C(O)c3cccs3)CC2)nn1` (configuration not stated) the figure was -4.12%. As for `Cc1c[nH]c(CN2CCCn3nc(CNS(C)(=O)=O)cc3C2)n1`, the cytotoxicity at 70.5 h was found to be 16%. With `Cc1ccc(OCC2CCCN(C(=O)c3csc(CN(C)C)n3)C2)cc1` (configuration not stated) the figure was -4.88%. With `CCC[C@H]1CN(CCS(C)(=O)=O)C[C@@H]1NC(=O)c1ccccn1` the figure was -5.77%; with `CC(=O)NCc1nnc2n1CCN(c1nc(C)nc3sccc13)CC2`, -7.13%; with `O=C(N[C@@H]1CCNC[C@H]1O)c1ccccc1OC(F)(F)C(F)F`, 0.818%. Turning to `C=C(C)CNC(=O)C1CCCN(C2CCN(C(C)C)CC2)C1` (configuration not stated), the cytotoxicity at 70.5 h was -2.47%. In the case of `CCNC(=O)[C@@H]1C[C@@H](NC(=O)Cc2cc(C)no2)CN1Cc1ccsc1` it was -12.7%. In the case of `COc1ccccc1OCc1cc(C(=O)N2C[C@@H](C)O[C@@H](C)C2)n[nH]1` it was -11.2%.

Turning to `CC(C)c1cc(N(C)Cc2noc(C3CCCC3)n2)n2nccc2n1`, the cytotoxicity at 70.5 h was -13.6%.

With `Cn1cc(C(=O)N2CCCCC2CCc2ccccc2)cn1` (configuration not stated), the cytotoxicity at 70.5 h is -10.6%. With `CC(C)[C@@H](C)NC(=O)N1CCn2nc(C(=O)NCCN(C)C)cc2C1` the figure was -0.748%; with `Cc1ncsc1C(=O)N1CCc2[nH]nc(-c3ccc4c(c3)OCO4)c2C1`, 13.6%.

As for `Cc1ccc([C@@H]2CN(S(=O)(=O)c3cc(C)ccc3F)C[C@H]2N(C)C)cc1`, the cytotoxicity at 70.5 h is -8.32%.

For `COc1cccc(OCC2CCCN(Cc3ncc[nH]3)C2)c1` (configuration not stated), the cytotoxicity at 70.5 h stood at 33.4%. With `CC(C1CCN(Cc2cccc(OC(F)F)c2)CC1)N1CCOCC1` (configuration not stated) the figure was -9.64%; with `Cc1c(-c2n[nH]c3c2CN(CC2CCOC2)CC3)cccc1C(F)(F)F` (configuration not stated), -6.06%.

With `CCNc1nc(C)c(C(=O)N(C)Cc2noc(C)n2)s1`, the cytotoxicity at 70.5 h amounted to 11.7%.

In the case of `CC(C)n1cc(C(=O)NCC(CO)Cc2cccs2)cn1` (configuration not stated), the cytotoxicity at 70.5 h was -8.73%. With `COCCN(C/C=C/c1ccccc1)Cc1[nH]cnc1C`, the cytotoxicity at 70.5 h came out at 1.05%. In the case of `CN1C(=O)CC(C(=O)O)C12CCN(c1ccc3ccccc3n1)CC2` (configuration not stated) it was -4.07%.

As for `CCCc1n[nH]cc1C(=O)N1CCCC(c2nccn2CC2CC2)C1` (configuration not stated), the cytotoxicity at 70.5 h was -6.16%.

Regarding `O=C(NCc1cc2n(n1)CCCN(Cc1ccc(CO)o1)C2)C1CCC1`, the cytotoxicity at 70.5 h came to 18.2%. Take `O=C1O[C@@H]2CN(S(=O)(=O)N3CCCC3)C[C@@H]2N1CCc1cccc(Cl)c1`: the cytotoxicity at 70.5 h is 0.28%.

For `COc1ccc(C(=O)N2CCN(C(=O)c3csc(C(C)C)n3)CC2)cc1`, the cytotoxicity at 70.5 h worked out at 28%. With `O=C(CCn1cncn1)N1C[C@H]2CC[C@@H]1CN(Cc1ccncc1)C2` the figure was 16.7%; with `CN(Cc1ccc2nonc2c1)C(=O)CCc1cc2n(n1)CCCNC2`, -6.8%; with `CCN(C)C[C@@H]1CN(S(=O)(=O)c2ccc(OC)cc2)C[C@@H]1CO`, 10.4%.

In the case of `O=C1CCNC(=O)N1CC(=O)N1CCC1c1ccc(F)cc1` (configuration not stated), the cytotoxicity at 70.5 h was -10.7%.

With `CCC(CO)N(Cc1ccccn1)C(=O)c1ccc(F)c(F)c1` (configuration not stated), the cytotoxicity at 70.5 h was -6.83%. In the case of `Cc1nc(O)cc(CN2C[C@H](NC(=O)C3CCC3)[C@@H](C3CC3)C2)n1` it was -3.55%; in that of `CC(C)[C@H]1CN(Cc2c[nH]cn2)C[C@@H]1NC(=O)CC1CCC1`, -6.54%; in that of `O=c1[nH]c(-c2ccccc2F)nc2c1CCNC2`, 14.4%. With `Cn1ncc2c(N3CCC3)nc(-c3ccncc3)nc21` the figure was 4.72%; with `CCc1nnc(CN(CC)C(=O)C2CCC(=O)N(C3CCCC3)C2)o1` (configuration not stated), -4.66%. In the case of `O=C(Nc1ccc2ncsc2c1)N1CCCN([C@H]2COC[C@@H]2O)CC1` it was 0.731%.

Regarding `CNc1nc(C)c(C(=O)N2CCCCC2CCc2ccccc2)s1` (configuration not stated), the cytotoxicity at 70.5 h was -5.18%. Take `NC(=O)CCC1CCCN(c2ncnc3c2Cc2ccccc2OC3)C1` (configuration not stated): the cytotoxicity at 70.5 h is -4.64%. Consider `CCc1[nH]c2c(CNC(=O)C3CCS(=O)(=O)CC3)cc(C)cc2c1C`, for which the cytotoxicity at 70.5 h was -7%. Take `COCc1ccccc1C(=O)N1CCCC1Cn1nc(C)cc1C` (configuration not stated): the cytotoxicity at 70.5 h came out at 0.418%. Take `Cc1cc(C)n(CC2CCCN2C(=O)c2cccc3c2OCCO3)n1` (configuration not stated): the cytotoxicity at 70.5 h was -3.57%. On to `Cc1cnn(CC2CCCN2C(=O)c2cccc3[nH]ncc23)c1` (configuration not stated), for which the cytotoxicity at 70.5 h worked out at 1.32%. `CC(C)c1nc(C2CCCN2C(=O)c2cnns2)no1` (configuration not stated): the cytotoxicity at 70.5 h is -1.79%. Regarding `Cc1cc(C)n(CC2CCCN2C(=O)c2cccc3c2OCO3)n1` (configuration not stated), the cytotoxicity at 70.5 h is -3.49%. With `Cc1nc(C)n(C2CCCN(C(=O)c3ccc(OC(C)C)nc3)C2)n1` (configuration not stated) the figure was -0.207%. In the case of `Nc1nc(CN2CCCC2Cn2cncn2)nc2ccccc12` (configuration not stated) it was -2.37%; in that of `c1ccc2c(N3CCCCC3Cn3cccn3)ncnc2c1` (configuration not stated), -1.4%. In the case of `Cc1nc(C)n(C2CCCN(C(=O)c3ccc(CN(C)C)cc3)C2)n1` (configuration not stated) it was -4.23%; in that of `CC(=O)N1CCCN(C(=O)c2ccc(Cn3ccccc3=O)o2)CC1`, 2.33%; in that of `CC(C)CN1CCN(C(=O)CCn2cccn2)CC1`, -1.87%.

For `CC(=O)N(Cc1ncc(C(C)C)o1)C1CCN(Cc2ccno2)C1` (configuration not stated), the cytotoxicity at 70.5 h worked out at 1.29%. Turning to `CCc1ccc(C(CNC(=O)c2c(C)noc2C)N(C)C)cc1` (configuration not stated), the cytotoxicity at 70.5 h amounted to 5.58%. As for `COc1ccccc1CC(=O)N1CCC(NCc2ccncc2)CC1`, the cytotoxicity at 70.5 h was -1.58%.

On to `COc1ccccc1CC(=O)N1CCC(NCc2ccc(C)o2)CC1`, for which the cytotoxicity at 70.5 h is -11.2%.

As for `CCCC1CCCN(C(=O)CCn2cccn2)CC1` (configuration not stated), the cytotoxicity at 70.5 h was found to be 22.3%. Turning to `c1cnc(-c2nc(CN3CCCN(Cc4cccs4)CC3)cs2)nc1`, the cytotoxicity at 70.5 h is -3.19%. With `CCc1nc(C2CCCN2Cc2nnc(C3CC3)o2)no1` (configuration not stated), the cytotoxicity at 70.5 h is -3.82%.

In the case of `NC(=O)C1CCN(C(=O)NCc2csc(Br)c2)CC1`, the cytotoxicity at 70.5 h was -7.32%.

Regarding `CC(C)N1CCN(C(=O)c2ccc(Cn3ccccc3=O)o2)CC1`, the cytotoxicity at 70.5 h was -5.81%.

As for `O=C(Nc1ccc(CCN2CCOCC2)cc1)C1CCCC1`, the cytotoxicity at 70.5 h is -3.35%. With `O=C(NCCNc1ccccn1)Nc1cc(C(F)(F)F)c[nH]c1=O` the figure was -3.73%. `O=C(NCCc1cccnc1)Nc1cc(C(F)(F)F)c[nH]c1=O`: the cytotoxicity at 70.5 h was found to be 14.6%. Turning to `O=C(CCNc1ncccn1)Nc1cc(C(F)(F)F)c[nH]c1=O`, the cytotoxicity at 70.5 h is -6.4%. With `O=C(NCCC1=CCCCC1)Nc1cc(C(F)(F)F)c[nH]c1=O` the figure was 0.799%.

On to `Cc1ccc(CCNC(=O)Nc2cc(C(F)(F)F)c[nH]c2=O)o1`, for which the cytotoxicity at 70.5 h is -4.56%. For `O=C(NCCc1ccco1)Nc1cc(C(F)(F)F)c[nH]c1=O`, the cytotoxicity at 70.5 h was -0.302%.

As to `Cc1nc2n(n1)CC(NCc1nc(-c3ccccn3)no1)CC2` (configuration not stated), the cytotoxicity at 70.5 h was -5.58%. With `CCOC(=O)c1sc2ccsc2c1CNC(=O)COC` the figure was 3.32%; with `O=C(Nc1ccc(CCN2CCC(O)CC2)cc1)C1CCCCC1`, -2.92%; with `O=C(c1ccc(Cn2ccccc2=O)o1)N1CCC2(CC1)OCCO2`, -2.65%.
